Results: ChEMBL document CHEMBL4507260 (2021)

Experiments:
Conditions in all cases: Compound concentration 1000.0 nM
[1] = target: Mitogen-activated protein kinase kinase kinase 13 (Homo sapiens) (UniProt O43283)
[2] = target: Dual specificity protein kinase CLK1 (Homo sapiens) (UniProt P49759)
[3] = system: Tyrosine-protein kinase ABL1 (Homo sapiens), P00519 [H396P]
[4] = target: Mitogen-activated protein kinase kinase kinase 2 (Homo sapiens) (UniProt Q9Y2U5)
[5] = target: Cyclin-dependent kinase 3 (Homo sapiens) (UniProt Q00526)
Chain of Cyclin-dependent kinase 3 (Homo sapiens) (Q00526 whole entry, looked up): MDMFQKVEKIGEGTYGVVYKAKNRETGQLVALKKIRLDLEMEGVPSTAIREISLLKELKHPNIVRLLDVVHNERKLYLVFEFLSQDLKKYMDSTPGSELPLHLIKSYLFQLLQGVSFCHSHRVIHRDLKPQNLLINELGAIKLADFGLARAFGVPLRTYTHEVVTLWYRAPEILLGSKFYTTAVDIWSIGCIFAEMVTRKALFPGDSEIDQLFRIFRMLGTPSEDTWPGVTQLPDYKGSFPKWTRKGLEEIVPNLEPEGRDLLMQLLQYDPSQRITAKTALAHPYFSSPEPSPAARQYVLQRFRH

[6] = system: Proto-oncogene tyrosine-protein kinase receptor Ret (Homo sapiens), P07949 [V804L]
[7] = target: Dual specificity mitogen-activated protein kinase kinase 5 (Homo sapiens) (UniProt Q13163)
[8] = target: Non-receptor tyrosine-protein kinase TYK2 (Homo sapiens) (UniProt P29597)
[9] = target: Interleukin-1 receptor-associated kinase 4 (Homo sapiens) (UniProt Q9NWZ3)
[10] = target: Serine/threonine-protein kinase PAK 6 (Homo sapiens) (UniProt Q9NQU5)
Chain of Serine/threonine-protein kinase PAK 6 (Homo sapiens) (Q9NQU5 whole entry, looked up): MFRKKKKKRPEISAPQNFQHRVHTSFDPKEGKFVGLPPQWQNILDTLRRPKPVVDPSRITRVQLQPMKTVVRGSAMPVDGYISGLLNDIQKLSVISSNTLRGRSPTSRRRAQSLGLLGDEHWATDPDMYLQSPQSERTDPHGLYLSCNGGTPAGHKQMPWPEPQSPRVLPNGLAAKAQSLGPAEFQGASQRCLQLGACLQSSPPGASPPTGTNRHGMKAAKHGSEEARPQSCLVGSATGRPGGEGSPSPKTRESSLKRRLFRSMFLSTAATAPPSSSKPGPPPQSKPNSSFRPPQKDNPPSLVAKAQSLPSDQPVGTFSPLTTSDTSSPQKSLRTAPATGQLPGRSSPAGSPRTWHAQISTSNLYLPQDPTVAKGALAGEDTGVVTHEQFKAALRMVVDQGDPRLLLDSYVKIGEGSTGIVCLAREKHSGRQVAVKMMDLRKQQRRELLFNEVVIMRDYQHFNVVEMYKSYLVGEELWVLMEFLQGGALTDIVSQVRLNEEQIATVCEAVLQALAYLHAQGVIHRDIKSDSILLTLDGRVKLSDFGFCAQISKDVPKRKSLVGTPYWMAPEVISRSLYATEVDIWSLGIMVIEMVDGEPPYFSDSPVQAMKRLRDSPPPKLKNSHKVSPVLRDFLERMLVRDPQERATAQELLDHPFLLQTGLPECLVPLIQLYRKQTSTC

[11] = target: Serine/threonine-protein kinase TAO2 (Homo sapiens) (UniProt Q9UL54)
[12] = system: Receptor-type tyrosine-protein kinase FLT3 (Homo sapiens), P36888 [D835V]
[13] = system: Receptor-type tyrosine-protein kinase FLT3 (Homo sapiens), P36888 [N841I]
[14] = system: Mast/stem cell growth factor receptor Kit (Homo sapiens), P10721 [D816H]
[15] = target: Ribosomal protein S6 kinase alpha-6 (Homo sapiens) (UniProt Q9UK32)
[16] = target: Serine/threonine-protein kinase PLK1 (Homo sapiens) (UniProt P53350)
[17] = target: Serine/threonine-protein kinase ULK1 (Homo sapiens) (UniProt O75385)
Chain of Serine/threonine-protein kinase ULK1 (Homo sapiens) (O75385 whole entry): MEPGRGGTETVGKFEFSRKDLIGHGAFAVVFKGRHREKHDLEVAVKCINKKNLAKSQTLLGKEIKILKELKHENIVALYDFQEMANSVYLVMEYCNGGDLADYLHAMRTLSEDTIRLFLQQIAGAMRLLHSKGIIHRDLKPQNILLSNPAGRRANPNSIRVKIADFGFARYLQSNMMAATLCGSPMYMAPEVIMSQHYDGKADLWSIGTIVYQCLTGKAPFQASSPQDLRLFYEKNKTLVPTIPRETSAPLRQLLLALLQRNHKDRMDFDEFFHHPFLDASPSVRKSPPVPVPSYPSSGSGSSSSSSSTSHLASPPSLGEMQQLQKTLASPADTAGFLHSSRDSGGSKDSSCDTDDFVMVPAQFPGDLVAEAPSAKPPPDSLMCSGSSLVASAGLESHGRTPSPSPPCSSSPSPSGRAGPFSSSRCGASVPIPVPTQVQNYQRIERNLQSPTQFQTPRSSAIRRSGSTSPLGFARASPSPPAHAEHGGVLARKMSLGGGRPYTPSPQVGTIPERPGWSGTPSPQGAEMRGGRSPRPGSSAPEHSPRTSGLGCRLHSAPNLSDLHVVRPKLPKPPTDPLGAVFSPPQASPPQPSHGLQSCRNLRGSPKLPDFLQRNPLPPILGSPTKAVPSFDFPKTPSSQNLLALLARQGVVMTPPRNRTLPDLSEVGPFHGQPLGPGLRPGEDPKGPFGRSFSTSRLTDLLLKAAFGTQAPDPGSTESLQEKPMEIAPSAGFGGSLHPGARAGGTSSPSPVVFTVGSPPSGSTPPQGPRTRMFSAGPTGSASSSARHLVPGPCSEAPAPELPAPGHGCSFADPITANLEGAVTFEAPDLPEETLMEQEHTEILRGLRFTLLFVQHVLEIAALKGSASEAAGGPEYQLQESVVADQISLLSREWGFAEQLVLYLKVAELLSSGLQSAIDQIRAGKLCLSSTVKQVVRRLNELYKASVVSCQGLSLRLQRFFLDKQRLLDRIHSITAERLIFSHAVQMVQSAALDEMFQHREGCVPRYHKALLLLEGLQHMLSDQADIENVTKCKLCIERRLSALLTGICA

[18] = target: Serine/threonine-protein kinase OSR1 (Homo sapiens) (UniProt O95747)
[19] = target: 5'-AMP-activated protein kinase catalytic subunit alpha-2 (Homo sapiens) (UniProt P54646)
[20] = target: MAP kinase-interacting serine/threonine-protein kinase 1 (Homo sapiens) (UniProt Q9BUB5)
[21] = target: Serine/threonine-protein kinase MRCK beta (Homo sapiens) (UniProt Q9Y5S2)
[22] = target: cGMP-dependent protein kinase 1 (Homo sapiens) (UniProt Q13976)
[23] = target: Ephrin type-B receptor 3 (Homo sapiens) (UniProt P54753)
[24] = target: Platelet-derived growth factor receptor beta (Homo sapiens) (UniProt P09619)
[25] = target: Serine/threonine-protein kinase WNK3 (Homo sapiens) (UniProt Q9BYP7)
[26] = target: Death-associated protein kinase 1 (Homo sapiens) (UniProt P53355)
[27] = target: 1-phosphatidylinositol 3-phosphate 5-kinase (Homo sapiens) (UniProt Q9Y2I7)
[28] = target: Protein-tyrosine kinase 2-beta (Homo sapiens) (UniProt Q14289)
[29] = system: Proto-oncogene tyrosine-protein kinase receptor Ret (Homo sapiens), P07949 [V804M]
[30] = target: Serine/threonine-protein kinase N2 (Homo sapiens) (UniProt Q16513)
[31] = target: Serine/threonine-protein kinase PRP4 homolog (Homo sapiens) (UniProt Q13523)
[32] = target: Activin receptor type-1B (Homo sapiens) (UniProt P36896)
[33] = target: Dual specificity mitogen-activated protein kinase kinase 1 (Homo sapiens) (UniProt Q02750)
[34] = target: Tyrosine-protein kinase Lck (Homo sapiens) (UniProt P06239)
[35] = target: Tyrosine-protein kinase ZAP-70 (Homo sapiens) (UniProt P43403)
[36] = target: Calcium/calmodulin-dependent protein kinase type 1 (Homo sapiens) (UniProt Q14012)
[37] = system: Receptor-type tyrosine-protein kinase FLT3 (Homo sapiens), P36888 [D835Y]
[38] = target: Cyclin-dependent kinase 17 (Homo sapiens) (UniProt Q00537)
[39] = target: Microtubule-associated serine/threonine-protein kinase 1 (Homo sapiens) (UniProt Q9Y2H9)
Chain of Microtubule-associated serine/threonine-protein kinase 1 (Homo sapiens) (Q9Y2H9 whole entry, looked up): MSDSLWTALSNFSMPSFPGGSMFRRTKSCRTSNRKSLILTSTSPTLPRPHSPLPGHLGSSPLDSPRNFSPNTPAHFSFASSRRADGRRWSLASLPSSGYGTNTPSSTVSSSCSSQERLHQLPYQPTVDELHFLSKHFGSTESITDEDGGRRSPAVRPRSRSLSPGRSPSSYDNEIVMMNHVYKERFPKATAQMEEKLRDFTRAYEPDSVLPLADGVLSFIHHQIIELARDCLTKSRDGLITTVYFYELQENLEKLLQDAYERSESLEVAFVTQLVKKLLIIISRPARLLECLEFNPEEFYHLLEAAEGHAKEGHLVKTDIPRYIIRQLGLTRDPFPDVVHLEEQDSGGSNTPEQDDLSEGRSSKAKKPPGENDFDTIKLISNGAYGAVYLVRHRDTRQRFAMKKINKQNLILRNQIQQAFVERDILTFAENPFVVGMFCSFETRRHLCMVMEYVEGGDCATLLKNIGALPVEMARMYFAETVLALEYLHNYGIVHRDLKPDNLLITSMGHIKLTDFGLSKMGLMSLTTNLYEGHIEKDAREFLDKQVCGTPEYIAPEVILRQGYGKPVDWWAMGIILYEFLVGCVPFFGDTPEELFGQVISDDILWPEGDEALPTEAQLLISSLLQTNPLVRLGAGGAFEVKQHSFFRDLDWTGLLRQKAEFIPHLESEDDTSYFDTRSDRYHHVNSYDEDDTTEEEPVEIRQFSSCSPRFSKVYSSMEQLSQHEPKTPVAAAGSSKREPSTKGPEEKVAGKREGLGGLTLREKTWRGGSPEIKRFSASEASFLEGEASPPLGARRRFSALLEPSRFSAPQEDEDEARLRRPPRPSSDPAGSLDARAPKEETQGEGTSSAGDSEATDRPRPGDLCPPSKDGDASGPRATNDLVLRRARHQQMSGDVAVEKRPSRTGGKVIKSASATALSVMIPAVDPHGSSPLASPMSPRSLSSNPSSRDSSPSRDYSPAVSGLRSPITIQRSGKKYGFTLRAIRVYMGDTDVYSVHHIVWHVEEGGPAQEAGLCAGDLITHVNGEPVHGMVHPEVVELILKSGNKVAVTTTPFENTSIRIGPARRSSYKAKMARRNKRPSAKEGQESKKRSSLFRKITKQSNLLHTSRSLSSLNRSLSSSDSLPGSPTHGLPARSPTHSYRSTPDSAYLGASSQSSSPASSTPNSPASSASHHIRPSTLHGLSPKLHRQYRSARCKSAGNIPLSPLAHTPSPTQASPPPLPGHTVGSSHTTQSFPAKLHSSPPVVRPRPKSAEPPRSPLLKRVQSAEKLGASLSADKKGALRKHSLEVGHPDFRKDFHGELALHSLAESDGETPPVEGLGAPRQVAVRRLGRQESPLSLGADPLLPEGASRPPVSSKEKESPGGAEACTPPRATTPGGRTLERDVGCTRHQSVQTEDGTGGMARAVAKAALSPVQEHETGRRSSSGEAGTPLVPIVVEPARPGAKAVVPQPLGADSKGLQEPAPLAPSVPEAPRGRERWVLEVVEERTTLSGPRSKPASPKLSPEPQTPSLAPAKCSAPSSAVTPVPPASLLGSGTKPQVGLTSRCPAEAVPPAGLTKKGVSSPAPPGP

[40] = target: 5'-AMP-activated protein kinase catalytic subunit alpha-1 (Homo sapiens) (UniProt Q13131)
[41] = target: Serine/threonine-protein kinase RIO2 (Homo sapiens) (UniProt Q9BVS4)
[42] = target: Cyclin-dependent kinase 2 (Homo sapiens) (UniProt P24941)
[43] = target: Activated CDC42 kinase 1 (Homo sapiens) (UniProt Q07912)
Chain of Activated CDC42 kinase 1 (Homo sapiens) (Q07912 whole entry, looked up): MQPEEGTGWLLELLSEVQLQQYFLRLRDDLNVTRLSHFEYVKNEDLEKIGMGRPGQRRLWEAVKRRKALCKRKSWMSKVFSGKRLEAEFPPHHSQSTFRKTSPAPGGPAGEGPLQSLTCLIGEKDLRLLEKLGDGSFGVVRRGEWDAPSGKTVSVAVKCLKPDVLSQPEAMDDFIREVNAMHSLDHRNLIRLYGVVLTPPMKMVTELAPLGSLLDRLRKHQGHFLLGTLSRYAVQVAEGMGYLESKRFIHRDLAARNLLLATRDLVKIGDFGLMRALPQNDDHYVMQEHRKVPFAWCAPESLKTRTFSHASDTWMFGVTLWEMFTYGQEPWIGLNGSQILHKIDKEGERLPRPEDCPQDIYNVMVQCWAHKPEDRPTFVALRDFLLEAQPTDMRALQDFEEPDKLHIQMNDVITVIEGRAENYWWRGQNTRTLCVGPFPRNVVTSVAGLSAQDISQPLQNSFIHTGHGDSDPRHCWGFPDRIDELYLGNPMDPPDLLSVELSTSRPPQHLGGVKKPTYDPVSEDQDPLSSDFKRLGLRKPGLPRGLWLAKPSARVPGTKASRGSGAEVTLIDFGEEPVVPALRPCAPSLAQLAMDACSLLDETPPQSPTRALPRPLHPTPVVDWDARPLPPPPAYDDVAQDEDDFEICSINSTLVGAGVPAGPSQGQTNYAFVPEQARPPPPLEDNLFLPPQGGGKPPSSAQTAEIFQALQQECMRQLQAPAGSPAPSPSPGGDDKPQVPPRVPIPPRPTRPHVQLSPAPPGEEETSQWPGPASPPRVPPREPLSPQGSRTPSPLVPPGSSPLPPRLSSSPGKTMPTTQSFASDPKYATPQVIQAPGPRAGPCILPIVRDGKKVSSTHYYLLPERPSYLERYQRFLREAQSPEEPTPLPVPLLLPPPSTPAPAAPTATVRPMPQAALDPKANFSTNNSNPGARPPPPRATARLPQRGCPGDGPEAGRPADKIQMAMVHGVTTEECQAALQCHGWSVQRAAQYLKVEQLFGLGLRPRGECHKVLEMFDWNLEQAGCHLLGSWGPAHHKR

[44] = target: Serine/threonine-protein kinase NIM1 (Homo sapiens) (UniProt Q8IY84)
Chain of Serine/threonine-protein kinase NIM1 (Homo sapiens) (Q8IY84 whole entry): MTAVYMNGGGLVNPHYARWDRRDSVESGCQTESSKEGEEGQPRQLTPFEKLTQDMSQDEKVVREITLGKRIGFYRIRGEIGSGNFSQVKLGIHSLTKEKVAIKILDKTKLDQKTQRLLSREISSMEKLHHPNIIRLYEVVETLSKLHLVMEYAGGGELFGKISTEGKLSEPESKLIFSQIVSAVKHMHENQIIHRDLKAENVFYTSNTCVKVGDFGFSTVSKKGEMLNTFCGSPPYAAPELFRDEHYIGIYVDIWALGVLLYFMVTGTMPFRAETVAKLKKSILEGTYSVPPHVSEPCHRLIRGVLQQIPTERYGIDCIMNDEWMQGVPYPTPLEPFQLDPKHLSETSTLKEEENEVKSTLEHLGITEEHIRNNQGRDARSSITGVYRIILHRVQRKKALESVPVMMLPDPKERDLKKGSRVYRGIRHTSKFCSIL

[45] = target: Misshapen-like kinase 1 (Homo sapiens) (UniProt Q8N4C8)

Measured: residual activity

CSc1cccnc1N1CCN(Cc2nc3ccccc3[nH]2)CC1 [A-769]
inactive: [1] 82% | [2] 80% | [3] 75% | [4] 82% | [5] 100% | [6] 98% | [7] 72% | [8] 100% | [9] 74% | [10] 100% | [11] 95% | [12] 84% | [13] 100% | [14] 100% | [15] 81% | [16] 78% | [17] 88% | [18] 78% | [19] 100% | [20] 98% | [21] 100% | [22] 100% | [23] 93% | [24] 100% | [25] 100% | [26] 100% | [27] 100% | [28] 100% | [29] 100% | [30] 62% | [31] 100% | [32] 100% | [33] 79% | [34] 100% | [35] 99% | [36] 100% | [37] 100% | [38] 100% | [39] 100% | [40] 83% | [41] 100% | [42] 95% | [43] 100% | [44] 84% | [45] 89%

c1ccc(N2CCN(Cc3nc4ccccc4[nH]3)CC2)nc1 [ABT-724]
inactive: [1] 86% | [2] 100% | [3] 87% | [4] 100% | [5] 100% | [6] 100% | [7] 83% | [8] 100% | [9] 100% | [10] 100% | [11] 83% | [12] 88% | [13] 100% | [14] 100% | [15] 100% | [16] 100% | [17] 100% | [18] 100% | [19] 100% | [20] 91% | [21] 100% | [22] 100% | [23] 100% | [24] 100% | [25] 100% | [26] 100% | [27] 100% | [28] 100% | [29] 100% | [30] 100% | [31] 57% | [32] 85% | [33] 100% | [34] 100% | [35] 100% | [36] 100% | [37] 100% | [38] 100% | [39] 65% | [40] 100% | [41] 100% | [42] 100% | [43] 100% | [44] 100% | [45] 100%
